Test [1] deals with T1, α1G T-type calcium ion channels (Homo sapiens, UniProt O43497).
T1 construct: host or cells: HEK293
Kind of test: Ion current inhibition on T-type calcium ion channels using a patch clamp (HEK293 cells). The class given is cell-based. As to the method:
Measurement of Ion Current Inhibition on T-Type Calcium Ion Channels Using a Patch Clamp
(1) Cell Culture and Preparation
20 hours prior to the use of the medium for expression of hERG channels, the Tet-expression system was activated by treating the medium with 1 μg/ml doxycycline.
The cells in the experiment was passaged once in three days, and collected when the cells were grown to 50˜80% confluency in the Petri dish. […] Trypsin was removed using a centrifuge, an extracellular solution was added, and cells floating automatically by a Patchliner were used at room temperature.
(2) Experimental Solution
As a solution composition for measurement of activation of T-type calcium ion channels, 140 mM NaCl, 2 mM CaCl2, 4 mM KCl, 1 mM MgCl2, 5 mM D-glucose, and 10 mM HEPES (pH 7.4) were used for an extracellular solution, and 50 mM KCl, 10 mM NaCl, 60 mM KF, 2 mM MgCl2, 10 mM HEPES, and 20 mM EGTA (pH 7.2) were used for an intracellular solution. To maintain the pre-cellular state, a seal reinforced solution was added. When T-type calcium ion channel expression cells were used, an extracellular solution supplemented with 10 mM Ba^2+ was added and records about the result were made.
(3) Electro-Physiological Technique and Data Processing
The current was measured through an EPC10 amplifier (HEKA, Germany) by a precellular patch clamp technique using NPC©-16 Patchliner (Nanion Technologies, Germany). Cell suspensions and various experimental solutions were automatically aliquotted into chips (NPC-16 Chip, Nanion Technologies, Germany) by experimental devices. A cell membrane potential was fixed at −100 mV for measurement of activation of T-type calcium ion channels. When a low polarization was performed at −20 mV for 300 ms, the inward current was measured at ten-second intervals.
The IC50 graphs and values were obtained from the automatic calculation of inhibition rates of the peak current using an experimental data analysis program IGOR Pro (WaveMetrics, USA).
A general note: The patch-clamp technique gives a direct electrical read-out from membranes.

Test [2] concerns spinal nerve ligation animal model. Particulars: Barton et al. 2005; cited from earlier work.
Test [3] concerns T-type calcium ion channel. Conditions: T-type versus L-type; cited from earlier work.
Where [4] appears, read: read-out: % inhibition rate (10 μM), 10 μM, peak inward current, HEK293 cells expressing α1G T-type channel.
The mark [5] stands for this setting: patch clamp, HEK293 α1G cells, unit nM, read-out: IC50 (μM), cells marked.
The mark [6] stands for this setting: patch clamp, HEK293 α1G cells, 10 nM to 100 μM, read-out: IC50.

Molecules are shown by their SMILES. Where two headings read alike, the source gives them in different places.

T1 sequence (O43497 whole entry): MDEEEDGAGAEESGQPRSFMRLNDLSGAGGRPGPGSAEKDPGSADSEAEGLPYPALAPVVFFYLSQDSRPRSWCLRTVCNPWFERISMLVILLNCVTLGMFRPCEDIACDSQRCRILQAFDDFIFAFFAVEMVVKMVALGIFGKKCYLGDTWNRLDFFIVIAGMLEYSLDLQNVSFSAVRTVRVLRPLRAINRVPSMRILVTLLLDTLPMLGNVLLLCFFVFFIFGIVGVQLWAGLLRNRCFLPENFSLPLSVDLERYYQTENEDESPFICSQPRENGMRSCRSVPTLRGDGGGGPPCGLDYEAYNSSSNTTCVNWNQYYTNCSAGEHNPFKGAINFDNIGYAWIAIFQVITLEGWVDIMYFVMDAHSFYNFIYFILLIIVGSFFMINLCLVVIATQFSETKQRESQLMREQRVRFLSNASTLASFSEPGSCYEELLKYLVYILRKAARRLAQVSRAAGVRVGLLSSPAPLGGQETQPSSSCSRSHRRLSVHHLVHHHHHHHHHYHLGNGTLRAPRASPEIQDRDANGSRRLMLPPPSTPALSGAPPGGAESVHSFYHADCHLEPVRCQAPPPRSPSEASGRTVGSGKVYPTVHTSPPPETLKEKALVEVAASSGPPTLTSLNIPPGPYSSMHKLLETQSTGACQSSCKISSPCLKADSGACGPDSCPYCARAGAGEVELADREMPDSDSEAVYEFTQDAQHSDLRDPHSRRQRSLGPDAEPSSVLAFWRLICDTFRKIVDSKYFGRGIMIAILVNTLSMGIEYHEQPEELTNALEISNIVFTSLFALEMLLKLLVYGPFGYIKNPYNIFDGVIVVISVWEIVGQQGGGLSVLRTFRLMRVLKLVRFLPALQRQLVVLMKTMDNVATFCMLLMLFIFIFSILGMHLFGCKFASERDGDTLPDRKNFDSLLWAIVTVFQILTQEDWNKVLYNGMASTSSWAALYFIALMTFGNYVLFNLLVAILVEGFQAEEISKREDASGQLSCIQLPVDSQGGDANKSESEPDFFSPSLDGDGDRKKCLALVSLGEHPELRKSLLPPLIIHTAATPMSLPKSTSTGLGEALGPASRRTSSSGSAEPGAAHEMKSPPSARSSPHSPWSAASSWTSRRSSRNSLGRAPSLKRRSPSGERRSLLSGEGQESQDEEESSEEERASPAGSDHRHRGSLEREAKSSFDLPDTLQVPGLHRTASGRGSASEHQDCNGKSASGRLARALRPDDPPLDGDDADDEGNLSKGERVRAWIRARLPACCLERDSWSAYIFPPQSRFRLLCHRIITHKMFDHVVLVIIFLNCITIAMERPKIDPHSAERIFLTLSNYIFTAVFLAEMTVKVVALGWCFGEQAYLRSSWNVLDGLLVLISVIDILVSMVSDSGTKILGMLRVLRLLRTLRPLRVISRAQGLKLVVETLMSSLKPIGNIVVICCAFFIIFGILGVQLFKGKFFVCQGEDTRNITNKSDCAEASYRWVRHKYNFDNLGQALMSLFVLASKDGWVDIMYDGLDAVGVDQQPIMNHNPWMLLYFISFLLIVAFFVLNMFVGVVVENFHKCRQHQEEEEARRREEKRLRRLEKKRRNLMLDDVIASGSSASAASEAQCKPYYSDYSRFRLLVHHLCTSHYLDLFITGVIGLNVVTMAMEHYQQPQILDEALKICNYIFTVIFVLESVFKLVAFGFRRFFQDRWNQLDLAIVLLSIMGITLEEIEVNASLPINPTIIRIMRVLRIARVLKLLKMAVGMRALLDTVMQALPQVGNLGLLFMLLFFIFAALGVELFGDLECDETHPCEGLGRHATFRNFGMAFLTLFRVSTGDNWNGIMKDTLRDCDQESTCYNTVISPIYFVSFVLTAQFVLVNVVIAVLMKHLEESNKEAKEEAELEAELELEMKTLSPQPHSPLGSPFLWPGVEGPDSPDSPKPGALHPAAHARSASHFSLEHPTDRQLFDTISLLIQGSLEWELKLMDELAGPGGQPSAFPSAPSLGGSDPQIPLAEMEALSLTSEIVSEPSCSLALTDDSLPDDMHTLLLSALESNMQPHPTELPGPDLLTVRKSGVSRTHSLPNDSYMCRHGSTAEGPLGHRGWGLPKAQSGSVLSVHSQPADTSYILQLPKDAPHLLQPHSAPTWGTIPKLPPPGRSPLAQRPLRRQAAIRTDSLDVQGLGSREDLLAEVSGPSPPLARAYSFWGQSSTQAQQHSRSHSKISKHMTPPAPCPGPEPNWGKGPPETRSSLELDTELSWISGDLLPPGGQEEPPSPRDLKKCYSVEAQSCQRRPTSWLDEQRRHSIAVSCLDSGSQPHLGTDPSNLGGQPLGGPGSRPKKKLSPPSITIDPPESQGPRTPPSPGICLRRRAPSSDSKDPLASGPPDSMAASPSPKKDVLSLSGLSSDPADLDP

On to `COC(=O)C(CCCN1CCN(Cc2ccc(C(F)(F)F)cc2)CC1)(c1ccc(Br)cc1)C(C)C` (centres unmarked) [Embodiment 34, methyl 2-(4-bromophenyl)-2-isopropyl-5-(4-(4-(trifluoromethyl)benzyl)piperazine-1-yl)pentanoate], for which the IC50 – broadly, the concentration at which inhibition is half-maximal – in test [1] came out at 280 ± 20 nM. In test [1] (HEK293, read-out: % inhibition rate (10 μM)), the inhibition – broadly, the share of the control response that was lost under treatment – at 10 µM was 93 ± 1.5%.

For the molecule `COCC(=O)O[C@]1(CCN(C)CCCc2nc3ccccc3[nH]2)CCc2cc(F)ccc2[C@@H]1C(C)C` [mibefradil], in test [1] (setting [4]), the inhibition at 10 µM came to 95.9 ± 1.7%. Further, in test [2], the “reversal of mechanic and thermal induction” value is “dosage-dependent reversed mechanic and thermal induction”. For the same molecule, the “more inhibitory activity to the T-type than to the L-type” value in test [3] is on record as 10 to 30 times.

With `COC(=O)C(CCCN1CCN(c2ccccc2OC)CC1)(c1ccc(Br)cc1)C(C)C` (centres unmarked) [Embodiment 35, methyl 2-(4-bromophenyl)-2-isopropyl-5-(4-(2-methoxyphenyl)piperazine-1-yl)pentanoate], the IC50 in test [1] (setting [5]) came to 95 ± 14.8 nM. Moreover, the inhibition at 10 µM in test [1] (setting [4]) stood at 94.1 ± 1.5%.

`COC(=O)C(CCCN(C)CCCc1nc2cc(OC)ccc2[nH]1)(c1ccc(OC)cc1)C(C)C` (centres unmarked) [Embodiment 5]: the concentration for half-maximal inhibition (IC50) in test [1] (setting [6]) came to 880 ± 70 nM. Further, the inhibition at 10 µM in test [1] (setting [4]) turned out to be 91.7 ± 1.9%.

Turning to `COC(=O)C(CCCN(C)CCCc1nc2ccccc2[nH]1)(c1ccc(Br)cc1)C(C)C` (centres unmarked) [Embodiment 1, 5-{[3-(1H-benzimidazole-2-yl)propyl]methylamino}-2-(4-bromophenyl)-2-isopropylpentanoic acid methyl ester], the half-maximal inhibitory concentration (IC50) in test [1] (setting [5]) was 8.17 ± 0.48 nM. Further, in test [1] (setting [4]), the inhibition at 10 µM worked out at 96.9 ± 0.59%.

Turning to `CCC1(C)CC(=O)NC1=O` (centres unmarked) [Ethosuximide], the “reversal of mechanic and thermal induction” value in test [2] is “dosage-dependent reversed mechanic and thermal induction”.

For `COC(=O)C(CCCN1CCN(Cc2cccc(C)c2)CC1)(c1ccc(Br)cc1)C(C)C` (centres unmarked) [Embodiment 40, methyl 2-(4-bromophenyl)-2-isopropyl-5-(4-(3-methylbenzyl)piperazine-1-yl)pentanoate], in test [1] (setting [6]), the IC50 was 390 ± 30 nM. For the same molecule, the inhibition at 10 µM in test [1] (setting [4]) amounted to 94.9 ± 1.5%.

Take `CCOC(=O)C(CCCN(C)CCCc1nc2cc(C)c(C)cc2[nH]1)(c1ccccc1)C(C)C` (centres unmarked) [Embodiment 11]: the IC50 in test [1] (setting [6]) worked out at 100 ± 10 nM. In test [1] (setting [4]), the inhibition at 10 µM was 91.4 ± 0.4%.

With `COC(=O)C(CCCN1CCN(Cc2ccc(OC)c(OC)c2OC)CC1)(c1ccc(Br)cc1)C(C)C` (centres unmarked) [Embodiment 39, methyl 2-(4-bromophenyl)-2-isopropyl-5-(4-(2,3,4-trimethoxybenzyl)piperazine-1-yl)pentanoate], in test [1] (setting [6]), the IC50 was determined as 320 ± 10 nM. Besides, the inhibition at 10 µM in test [1] (setting [4]) was determined as 95.1 ± 1.9%.

`COC(=O)C(CCCN1CCN(Cc2cccc(F)c2)CC1)(c1ccc(Br)cc1)C(C)C` (centres unmarked) [Embodiment 31, methyl 2-(4-bromophenyl)-5-(4-(3-fluorobenzyl)piperazine-1-yl)-2-isopropylpentanoate]: in test [1] (setting [6]), the IC50 is 980 ± 110 nM. The inhibition at 10 µM in test [1] (setting [4]) was found to be 89.3 ± 1.6%.

As for `COC(=O)C(CCCN1CCN(Cc2ccc(OC)cc2)CC1)(c1ccc(Br)cc1)C(C)C` (centres unmarked) [Embodiment 38, methyl 2-(4-bromophenyl)-2-isopropyl-5-(4-(4-methoxybenzyl)piperazine-1-yl)pentanoate], the IC50 in test [1] (setting [6]) came to 480 ± 80 nM. In test [1] (setting [4]), the inhibition at 10 µM was 96 ± 1.7%.

With `COC(=O)C(CCCN1CCN(Cc2ccc(F)cc2)CC1)(c1ccc(Br)cc1)C(C)C` (centres unmarked) [Embodiment 32, methyl 2-(4-bromophenyl)-5-(4-(4-fluorobenzyl)piperazine-1-yl)-2-isopropylpentanoate], the half-maximal inhibitory concentration (IC50) in test [1] (setting [6]) amounted to 1110 ± 50 nM. Also, the inhibition at 10 µM in test [1] (setting [4]) amounted to 96.5 ± 1.7%.

`CCOC(=O)C(CCCN(C)CCCc1nc2ccccc2[nH]1)(c1ccccc1)C(C)C` (centres unmarked) [Embodiment 10]: the IC50 in test [1] (setting [6]) came to 250 ± 5 nM. In addition, in test [1] (setting [4]), the inhibition at 10 µM was found to be 98.3 ± 0.9%.

`COC(=O)C(CCCN(C)CCCc1nc2ccccc2[nH]1)(c1ccc(OC)cc1)C(C)C` (centres unmarked) [Embodiment 4]: in test [1] (setting [6]), the half-inhibitory concentration (IC50) stood at 190 ± 1 nM. Also, the inhibition at 10 µM in test [1] (setting [4]) was found to be 93.5 ± 3.2%.

Take `COC(=O)C(CCCN(C)CCCc1nc2cc(OC)ccc2[nH]1)(c1ccc(Br)cc1)C(C)C` (centres unmarked) [Embodiment 13]: in test [1] (setting [6]), the IC50 stood at 250 ± 10 nM. In addition, the inhibition at 10 µM in test [1] (setting [4]) is 94.5 ± 1.2%.

Take `COC(=O)C(CCCN(C)CCCc1nc2cc(C)c(C)cc2[nH]1)(c1ccc(Br)cc1)C(C)C` (centres unmarked) [Embodiment 12]: the half-maximal inhibitory concentration (IC50) in test [1] (setting [5]) turned out to be 53 ± 4.87 nM. Also, the inhibition at 10 µM in test [1] (setting [4]) worked out at 94.2 ± 0.4%.

In the case of `COC(=O)C(CCCN1CCN(Cc2ccccc2F)CC1)(c1ccc(Br)cc1)C(C)C` (centres unmarked) [Embodiment 30, methyl 2-(4-bromophenyl)-5-(4-(2-fluorobenzyl)piperazine-1-yl)-2-isopropylpentanoate], the IC50 in test [1] (setting [6]) worked out at 740 ± 20 nM. Moreover, the inhibition at 10 µM in test [1] (setting [4]) was determined as 90.4 ± 3.2%.

For the molecule `CCOC(=O)C(CCCN1CCN(Cc2ccc(OC)cc2)CC1)(c1ccccc1)C(C)C` (centres unmarked) [Embodiment 23, ethyl 2-isopropyl-5-(4-(4-methoxybenzyl)piperazine-1-yl)-2-phenylpentanoate], the IC50 in test [1] (setting [6]) worked out at 340 ± 20 nM. For the same molecule, the inhibition at 10 µM in test [1] (setting [4]) was determined as 96.3 ± 1.7%.

As to `CCOC(=O)C(CCCN1CCN(Cc2ccc(F)cc2)CC1)(c1ccccc1)C(C)C` (centres unmarked) [Embodiment 26, ethyl 5-(4-(4-fluorobenzyl)piperazine-1-yl)-2-isopropyl-2-phenylpentanoate], in test [1] (setting [6]), the IC50 came out at 260 ± 30 nM. In addition, the inhibition at 10 µM in test [1] (setting [4]) was 94 ± 2.5%.

These data come from patent US7939672B2, “Phenylacetate derivatives or pharmaceutically acceptable salts thereof, preparation method thereof and composition for prevention or treatment of diseases induced by activation of T-type calcium ion channel containing the same as an active ingredient” (Korea Institute of Science and Technology, priority 2008, dated 2011).
